# Measurements published in ChEMBL document CHEMBL1201862, “PubChem BioAssay data set” (2004).
# Active and inactive are the calls of the source.
# Tests used:
# [1] = biological target: E3 ubiquitin-protein ligase XIAP (Homo sapiens, UniProt P98170); test: Counter Screen using XIAP-Bir3 for Chemical Antagonists of Bir1/2 domains of IAP-family anti-apoptotic proteins. [Related pubchem assays (depositor defined):AID1018, AID1449, AID1514, AID1638, AID1749, AID1750, AID488957, AID488963]
# Troponin, cardiac muscle = Troponin, cardiac muscle (Homo sapiens, UniProt P19429+P45379+P63316); test: Fluorescence-based biochemical high throughput dose response assay for activators of the calcium sensitivity of cardiac Regulated Thin Filaments (RTF). [Related pubchem assays (depositor defined):AID493008, AID493018, AID504382, AID504383]; assay type: protein-complex assay
# [2] = compound autofluorescence in calcium buffer – biochemical, fluorescence, no RTF in test wells, artefact control for cardiac thin filament activator project, dose response (AID 504697)
# [3] = biological target: T1, Long-chain-fatty-acid--AMP ligase FadD28 (Mycobacterium tuberculosis, UniProt P9WQ59); test: Fluorescence polarization aasay to screen for inhibitors that compete for the binding of FadD28 to a bisubstrate Measured in Biochemical System Using Plate Reader - 2147-01_Inhibitor_Dose_CherryPick_Activity.; assay type: functional, Mycobacterium tuberculosis H37Rv
# T1 sequence (P9WQ59 whole entry): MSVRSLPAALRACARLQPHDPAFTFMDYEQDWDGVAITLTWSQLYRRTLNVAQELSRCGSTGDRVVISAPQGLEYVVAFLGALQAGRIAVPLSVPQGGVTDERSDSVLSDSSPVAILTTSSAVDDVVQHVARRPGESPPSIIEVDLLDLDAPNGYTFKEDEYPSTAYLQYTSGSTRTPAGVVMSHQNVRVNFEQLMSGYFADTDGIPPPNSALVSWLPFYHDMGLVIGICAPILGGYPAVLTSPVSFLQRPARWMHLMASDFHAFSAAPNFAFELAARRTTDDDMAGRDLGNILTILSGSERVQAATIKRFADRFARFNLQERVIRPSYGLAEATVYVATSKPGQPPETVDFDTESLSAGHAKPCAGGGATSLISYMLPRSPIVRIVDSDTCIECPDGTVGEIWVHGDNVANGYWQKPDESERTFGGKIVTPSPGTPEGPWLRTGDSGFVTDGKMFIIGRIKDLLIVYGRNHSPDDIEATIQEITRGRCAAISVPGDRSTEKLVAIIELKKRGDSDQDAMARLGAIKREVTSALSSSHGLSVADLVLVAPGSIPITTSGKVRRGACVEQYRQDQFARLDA
# Cannabinoid receptor 1 [4] = biological target: T2, Cannabinoid receptor 1 (Homo sapiens, UniProt P21554); test: SAR analysis of antagonists of the Cannabinoid Receptor 1 using an Image-Based Assay - Set 4. [Related pubchem assays (depositor defined):AID2013, AID2026]; assay type: functional
# T2 sequence (P21554 whole entry): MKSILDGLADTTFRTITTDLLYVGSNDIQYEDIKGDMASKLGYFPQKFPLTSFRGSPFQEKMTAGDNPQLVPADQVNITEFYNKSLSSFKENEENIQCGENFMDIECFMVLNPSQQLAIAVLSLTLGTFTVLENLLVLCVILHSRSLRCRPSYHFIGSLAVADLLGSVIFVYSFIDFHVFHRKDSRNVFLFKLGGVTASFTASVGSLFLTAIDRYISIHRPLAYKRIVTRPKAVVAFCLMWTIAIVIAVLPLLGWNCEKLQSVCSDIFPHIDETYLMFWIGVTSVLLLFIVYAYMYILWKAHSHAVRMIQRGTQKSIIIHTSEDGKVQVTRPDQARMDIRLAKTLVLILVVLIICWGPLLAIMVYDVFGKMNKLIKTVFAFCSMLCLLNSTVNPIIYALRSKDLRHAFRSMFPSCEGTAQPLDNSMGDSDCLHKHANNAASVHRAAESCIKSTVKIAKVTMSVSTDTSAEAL
# Cannabinoid receptor 1 [5] = biological target: T2, Cannabinoid receptor 1; test: SAR analysis of agonists of the Cannabinoid Receptor 1 using an Image-Based Assay - Set 4. [Related pubchem assays (depositor defined):AID2013, AID2026]; assay type: functional
# [6] = biological target: G-protein coupled receptor 55 (Homo sapiens, UniProt Q9Y2T6); test: SAR Analysis of Selective Antagonists of GPR55 using an Image-Based Assay - Set 4. [Related pubchem assays (depositor defined):AID2013, AID2026]; assay type: functional;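 further: antagonism of response to 5 µM lysophosphatidylinositol agonist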
# G-protein coupled receptor 55, sequence (Q9Y2T6 whole entry): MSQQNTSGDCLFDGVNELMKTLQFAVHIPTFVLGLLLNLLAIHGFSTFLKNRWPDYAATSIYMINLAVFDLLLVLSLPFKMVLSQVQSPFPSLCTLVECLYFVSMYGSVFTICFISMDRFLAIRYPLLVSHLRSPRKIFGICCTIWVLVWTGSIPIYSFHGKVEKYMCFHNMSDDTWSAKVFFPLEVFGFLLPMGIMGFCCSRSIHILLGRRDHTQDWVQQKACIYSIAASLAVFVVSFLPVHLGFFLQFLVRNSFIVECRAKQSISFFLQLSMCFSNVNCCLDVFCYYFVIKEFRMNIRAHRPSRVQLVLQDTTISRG
# Cannabinoid receptor 2 [7] = biological target: T3, Cannabinoid receptor 2 (Homo sapiens, UniProt P34972); test: SAR analysis of agonists of the Cannabinoid Receptor 2 using an Image-Based Assay - Set 3. [Related pubchem assays (depositor defined):AID2013, AID2026]; assay type: functional
# T3 sequence (P34972 whole entry): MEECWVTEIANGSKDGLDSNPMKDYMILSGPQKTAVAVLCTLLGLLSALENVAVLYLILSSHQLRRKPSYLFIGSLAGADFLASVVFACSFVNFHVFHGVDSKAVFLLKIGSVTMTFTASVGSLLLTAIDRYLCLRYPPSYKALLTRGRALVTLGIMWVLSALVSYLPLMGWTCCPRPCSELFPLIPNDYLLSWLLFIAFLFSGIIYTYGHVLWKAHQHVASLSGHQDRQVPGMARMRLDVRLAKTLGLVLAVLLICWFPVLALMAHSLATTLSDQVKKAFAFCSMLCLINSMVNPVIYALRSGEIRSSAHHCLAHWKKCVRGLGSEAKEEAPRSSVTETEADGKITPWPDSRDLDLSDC
# [8] = biological target: T4, G-protein coupled receptor 35 (Homo sapiens, UniProt Q9HC97); test: SAR analysis of Agonists of the GPR35 Receptor using an Image-Based Assay - Set 4. [Related pubchem assays (depositor defined):AID2013, AID2026]; assay type: functional
# T4 sequence (Q9HC97 whole entry): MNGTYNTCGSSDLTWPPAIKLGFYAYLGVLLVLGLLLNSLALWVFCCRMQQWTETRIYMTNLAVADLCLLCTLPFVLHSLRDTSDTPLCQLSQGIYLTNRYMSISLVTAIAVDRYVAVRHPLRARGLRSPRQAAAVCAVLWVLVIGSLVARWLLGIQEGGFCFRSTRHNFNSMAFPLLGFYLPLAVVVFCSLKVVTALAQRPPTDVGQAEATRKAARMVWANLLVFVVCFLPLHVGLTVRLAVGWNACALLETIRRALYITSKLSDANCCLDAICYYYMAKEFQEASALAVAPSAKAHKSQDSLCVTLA
# Cannabinoid receptor 2 [9] = biological target: T3, Cannabinoid receptor 2; test: SAR analysis of antagonists of the Cannabinoid Receptor 2 using an Image-Based Assay - Set 3. [Related pubchem assays (depositor defined):AID2013, AID2026]; assay type: functional
# [10] = biological target: T4, G-protein coupled receptor 35; test: SAR analysis of Antagonists of the GPR35 Receptor using an Image-Based Assay - Set 6. [Related pubchem assays (depositor defined):AID2013, AID2026]; assay type: functional
# [11] = biological target: T5, Tyrosine-protein phosphatase non-receptor type 7 (Homo sapiens, UniProt P35236); test: redox-active compounds inhibiting HePTP phosphatase – biochemical, fluorescence, mechanism study (AID 2068); assay type: functional
# T5 sequence (P35236 whole entry): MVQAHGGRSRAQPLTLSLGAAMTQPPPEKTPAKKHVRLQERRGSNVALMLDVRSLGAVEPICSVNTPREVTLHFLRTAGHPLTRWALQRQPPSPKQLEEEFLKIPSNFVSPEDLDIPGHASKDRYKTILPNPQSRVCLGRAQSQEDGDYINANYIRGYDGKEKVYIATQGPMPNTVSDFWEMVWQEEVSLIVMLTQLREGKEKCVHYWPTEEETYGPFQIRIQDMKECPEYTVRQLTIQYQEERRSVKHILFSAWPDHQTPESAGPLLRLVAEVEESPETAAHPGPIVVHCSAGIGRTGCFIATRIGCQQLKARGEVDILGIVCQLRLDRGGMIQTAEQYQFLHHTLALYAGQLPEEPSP
# [12] = biological target: T5, Tyrosine-protein phosphatase non-receptor type 7; test: inhibition of hematopoietic tyrosine phosphatase HePTP – biochemical, set 2, SAR follow-up (AID 449736); assay type: functional
# [13] = biological target: Tyrosine-protein phosphatase non-receptor type 12 (Homo sapiens, UniProt Q05209); test: SAR Selectivity Analysis of small molecule inhibitors of PEST using pCAP in a fluorescence assay. [Related pubchem assays (depositor defined):AID1779, AID1784, AID2135]; assay type: functional
# Tyrosine-protein phosphatase non-receptor type 12, sequence (Q05209 whole entry): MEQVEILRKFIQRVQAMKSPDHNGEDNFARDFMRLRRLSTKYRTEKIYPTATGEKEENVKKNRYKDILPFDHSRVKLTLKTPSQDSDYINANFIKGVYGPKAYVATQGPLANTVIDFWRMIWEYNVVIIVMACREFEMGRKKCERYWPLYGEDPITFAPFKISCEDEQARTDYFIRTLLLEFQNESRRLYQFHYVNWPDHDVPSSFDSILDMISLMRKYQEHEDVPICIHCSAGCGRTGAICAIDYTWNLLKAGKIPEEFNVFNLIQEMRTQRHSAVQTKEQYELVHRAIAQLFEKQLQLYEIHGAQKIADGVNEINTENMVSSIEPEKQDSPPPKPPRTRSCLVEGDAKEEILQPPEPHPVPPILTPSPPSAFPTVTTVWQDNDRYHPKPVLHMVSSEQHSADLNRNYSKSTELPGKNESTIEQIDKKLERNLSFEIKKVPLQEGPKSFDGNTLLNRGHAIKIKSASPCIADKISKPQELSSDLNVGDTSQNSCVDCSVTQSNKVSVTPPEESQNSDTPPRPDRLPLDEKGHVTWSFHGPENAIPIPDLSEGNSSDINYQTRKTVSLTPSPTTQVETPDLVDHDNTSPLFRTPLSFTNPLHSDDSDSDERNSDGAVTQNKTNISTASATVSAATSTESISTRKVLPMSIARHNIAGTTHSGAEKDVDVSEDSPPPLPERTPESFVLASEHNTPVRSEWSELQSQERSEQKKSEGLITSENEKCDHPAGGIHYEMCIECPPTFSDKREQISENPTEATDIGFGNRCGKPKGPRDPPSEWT
# [14] = biological target: Dual specificity protein phosphatase 3 (Homo sapiens, UniProt P51452); test: SAR VHR1 Fluorescent Assay for In Vitro dose response studies Set 2. [Related pubchem assays (depositor defined):AID1654, AID1661, AID1878]; assay type: functional
# Dual specificity protein phosphatase 3, sequence (P51452 whole entry): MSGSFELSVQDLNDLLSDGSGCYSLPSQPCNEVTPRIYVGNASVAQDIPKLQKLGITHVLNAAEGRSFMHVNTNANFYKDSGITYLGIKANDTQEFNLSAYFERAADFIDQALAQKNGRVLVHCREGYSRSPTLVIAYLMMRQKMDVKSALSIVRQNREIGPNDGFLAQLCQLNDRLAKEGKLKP
# [15] = biological target: T6, Dual specificity protein phosphatase 6 (Rattus norvegicus, UniProt Q64346); assay type: functional;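 further: confirmatory in vitro dose-response testing of MKP-3 inhibition; recombinant His-tagged MKP-3 made in E. coli BL21 with OMFP substrate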
# T6 sequence (Q64346 whole entry): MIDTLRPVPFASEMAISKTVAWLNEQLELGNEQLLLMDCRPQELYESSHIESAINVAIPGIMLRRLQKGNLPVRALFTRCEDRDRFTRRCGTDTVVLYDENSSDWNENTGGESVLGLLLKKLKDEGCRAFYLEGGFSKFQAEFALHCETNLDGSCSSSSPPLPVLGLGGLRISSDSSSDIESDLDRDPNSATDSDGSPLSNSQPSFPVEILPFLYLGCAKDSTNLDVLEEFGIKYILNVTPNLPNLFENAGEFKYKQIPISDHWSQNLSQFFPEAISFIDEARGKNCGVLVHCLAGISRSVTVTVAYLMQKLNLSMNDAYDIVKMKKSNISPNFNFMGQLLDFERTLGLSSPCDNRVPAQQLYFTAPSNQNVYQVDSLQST
# [16] = biological target: T7, Tyrosine-protein phosphatase non-receptor type 22 (Homo sapiens, UniProt Q9Y2R2); test: SAR LYP1 Fluorescent Assay using OMFP substrate for In Vitro dose response studies - Set 3. [Related pubchem assays (depositor defined):AID1779, AID1784, AID2140, AID2686]; assay type: functional
# T7 sequence (Q9Y2R2 whole entry): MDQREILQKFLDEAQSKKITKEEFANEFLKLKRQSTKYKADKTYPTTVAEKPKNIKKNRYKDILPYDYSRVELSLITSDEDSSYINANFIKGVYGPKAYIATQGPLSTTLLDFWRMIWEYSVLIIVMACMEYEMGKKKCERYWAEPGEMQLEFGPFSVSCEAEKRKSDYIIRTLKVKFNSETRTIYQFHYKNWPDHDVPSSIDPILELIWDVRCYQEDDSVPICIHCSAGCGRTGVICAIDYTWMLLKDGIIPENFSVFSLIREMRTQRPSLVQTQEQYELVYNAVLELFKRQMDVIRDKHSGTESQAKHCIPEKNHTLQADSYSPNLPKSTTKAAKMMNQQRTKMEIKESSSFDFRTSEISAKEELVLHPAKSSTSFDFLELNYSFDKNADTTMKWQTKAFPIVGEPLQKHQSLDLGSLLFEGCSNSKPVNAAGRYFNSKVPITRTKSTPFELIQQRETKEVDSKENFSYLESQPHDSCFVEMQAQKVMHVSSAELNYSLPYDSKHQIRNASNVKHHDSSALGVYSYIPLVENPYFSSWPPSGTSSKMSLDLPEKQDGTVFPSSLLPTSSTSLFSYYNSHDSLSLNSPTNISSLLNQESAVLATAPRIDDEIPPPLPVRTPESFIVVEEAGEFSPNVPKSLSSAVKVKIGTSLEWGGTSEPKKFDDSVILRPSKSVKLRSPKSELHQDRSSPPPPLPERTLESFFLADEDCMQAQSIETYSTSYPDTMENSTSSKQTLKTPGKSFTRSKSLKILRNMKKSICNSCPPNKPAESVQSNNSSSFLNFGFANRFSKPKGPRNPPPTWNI
# [17] = biological target: T7, Tyrosine-protein phosphatase non-receptor type 22; test: inhibition of lymphoid tyrosine phosphatase LYP – biochemical, pCAP fluorogenic substrate, fluorescence, set 3, SAR follow-up (AID 449727); assay type: functional
# E3 ubiquitin-protein ligase XIAP, sequence (P98170 whole entry): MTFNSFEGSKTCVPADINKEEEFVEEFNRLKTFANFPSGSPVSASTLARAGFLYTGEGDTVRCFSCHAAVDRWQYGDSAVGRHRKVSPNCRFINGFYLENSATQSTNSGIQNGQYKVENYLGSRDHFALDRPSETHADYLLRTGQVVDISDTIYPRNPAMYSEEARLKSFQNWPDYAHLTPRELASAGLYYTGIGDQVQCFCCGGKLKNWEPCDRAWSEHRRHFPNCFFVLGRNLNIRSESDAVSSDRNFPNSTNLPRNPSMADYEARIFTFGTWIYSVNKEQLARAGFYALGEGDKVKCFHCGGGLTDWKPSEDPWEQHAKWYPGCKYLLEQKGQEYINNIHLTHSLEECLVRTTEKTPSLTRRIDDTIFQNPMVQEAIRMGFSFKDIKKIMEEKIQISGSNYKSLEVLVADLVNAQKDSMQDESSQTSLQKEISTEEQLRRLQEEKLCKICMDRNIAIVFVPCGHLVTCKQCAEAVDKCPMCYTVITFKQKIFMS
structure (smiles),measurement,setting,value
CCN1C(=O)C(=CNc2ccc(N3CCOCC3)cc2)C(=O)N(CC)C1=S,IC50,[1],> 20 µM (inactive)
same,EC50,"Troponin, cardiac muscle",5.15 µM (active)
same,EC50,[2],> 7.94 µM (active)
same,AC50,[3],> 100 µM (inactive)
COc1ccc(-c2nnc(C)c3nn(-c4ccc(C)cc4)cc23)cc1,IC50,Cannabinoid receptor 1 [4],3.56 µM (active)
same,EC50,Cannabinoid receptor 1 [5],> 32 µM (inactive)
same,IC50,[6],> 32 µM (inactive)
same,EC50,Cannabinoid receptor 2 [7],> 32 µM (inactive)
same,EC50,[8],> 32 µM (inactive)
same,IC50,Cannabinoid receptor 2 [9],> 15.6 µM (inactive)
same,IC50,[10],> 32 µM (inactive)
CCOc1cc(/C=C2\SC(=O)N(CC(=O)Nc3ccc(C)cc3)C2=O)cc(Cl)c1OCC(=O)OC,IC50,[11],17.9 µM (active)
same,IC50,[12],9.66 µM (active)
same,IC50,[13],> 100 µM (inactive)
same,IC50,[14],> 100 µM (inactive)
same,IC50,[15],> 100 µM (inactive)
same,IC50,[16],> 100 µM (inactive)
same,IC50,[17],> 100 µM (inactive)
